Source: article PMC10287555, “Camonsertib in DNA damage response-deficient advanced solid tumors: phase 1 trial results” (Nature Medicine, 2023)

Assay: Food effect on PK (module 1c)
Type: in vivo, human
Text: TRESR (NCT04497116) is a modular, phase 1/2a, first-in-human, multicenter, open-label, non-randomized, dose-escalation, dose-expansion study of camonsertib, administered orally as a single agent or in combination with talazoparib or gemcitabine in patients with advanced solid tumors. The results reported here focus on module 1, which includes the dose escalation of camonsertib monotherapy, and is further divided into three submodules: module 1a (M1a), 5/2 dosing schedule; module 1b (M1b), 3/4 dosing schedule; and module 1c (M1c), food effect evaluation. For the 12 patients enrolled in M1c, camonsertib was administered with a high-fat, high-calorie meal on day −3 and in the fasted state on day 1, to evaluate the effect of food on the PK of camonsertib. After the food effect portion of the study, patients continued camonsertib monotherapy on either the 5/2 or 3/4 schedule and were analyzed for safety and efficacy along with the patients in M1a and M1b. The study was conducted in accordance with the Declaration of Helsinki and Council for International Organizations of Medical Sciences International Ethical Guidelines, applicable International Conference on Harmonization Good Clinical Practice Guidelines and applicable laws and regulations. All patients provided written informed consent to adhere to the clinical protocol and provide serial blood samples and tumor tissue. The protocol was approved by the institutional review board or ethics committee at each participating institution.
The plasma levels from cycle 1, day 1 of camonsertib were quantified using a validated liquid chromatography tandem–mass spectrometry (LC–MS/MS) method. […] All PK parameters were calculated using actual sampling times. Mean plasma concentration time profiles at given dose levels and regimens were plotted on semi-logarithmic plots using nominal times.

[1] = high fat/high calorie meal vs fasted, 100–160 mg QD

## C[C@@H]1COCCN1c1cc([C@]2(O)C[C@H]3CC[C@@H](C2)O3)c2cnn(-c3cc[nH]n3)c2n1 [camonsertib]
[1]
  Food effect on AUC: no change in AUC
  Food effect on Cmax: reduction
  Food effect on Tmax: delay in Tmax
Twelve patients, module 1c
  Effect of a high-fat, high-calorie meal on PK: modest PK changes
